The values that follow come from patent publication US6518302B1, “Remedies” (Takara Shuzo Co., Ltd., priority 1999, dated 2003).

Like-named read-outs stand apart in the source and are kept apart here.

The nature of data set [1]: Conversion into DGE in culture medium (thin-layer chromatography). The class given is in vitro ADME. The settings on record: 10 mM in RPMI 1640 medium with 10% calf serum, 37° C., 4 hours. The protocol:
The compound (7) or the compound (9) synthesized in Example 1 was dissolved at a final concentration of 10 mM in RPMI 1640 medium supplemented with 10% calf serum. These samples were allowed to stand at 37° C. for 4 hours. […] each of the samples was then subjected to thin-layer chromatography using chloroform:methanol=5:1 as a developing solvent. Detection was carried out using orcinol-sulfuric acid.
For each sample, a spot with Rf value of 0.5, the same value as that for the compound of general formula IV in which Z is CH2OH and Y is H (L-glycero-1,5-epoxy-1αβ,6-dihydroxy-cis-hex-3-en-2-one, hereinafter referred to as DGE), was detected.

In data set [2] the test system is HL-60 (ATCC CCL-240) cells. The experiment in a line: Analysis of DNA fragmentation. The class given is cell-based, Human. The settings on record: HL-60 cells. The protocol: (§1) HL-60 (ATCC CCL-240) cells were cultured at 37° C. in RPMI 1640 medium (Bio Whittaker) containing 10% fetal calf serum (JRH) which had been treated at 56° C. for 30 minutes and suspended in RPMI 1640 medium at a concentration of 2.5×10^5 cells/4.5 ml. […] each of aqueous solutions of the compound (2) at a concentration of 10, 50 or 100 mM, the compound (7) at a concentration of 500, 1000 or 1500 μM, the compound (9) at a concentration of 750, 1500 or 3000 μM, the compound (11) at a concentration of 750, 1500 or 3000 μM, or the compound (14) at a concentration of 750, 1500 or 3000 μM was added to 4.5 ml of the suspension. The mixtures were incubated at 37° C. for 24 hours in the presence of 5% CO2. Measurement of apoptotic cells using FACScan as described in Saibo Kogaku, Bessatsu (Cell Technology, Suppl.) Jikken Protocol Series: Apoptosis Jikken Protocol (Experimental Protocol Series: Experimental Protocols for Apoptosis) (Shujun-sha) pp. 129-130 and analysis of DNA fragmentation as described in Bio Manual UP Series: […] Apoptosis Jikken-ho (Bio Manual UP Series: Current Experimental Methods for Apoptosis) (Yodo-sha) pp. 61-63 were carried out using cells cultured for 24 or 48 hours in the same manner as that described above.

The subject of data set [3] is HL-60 (ATCC CCL-240) cells. The experiment in a line: Viability of HL-60 cells by Trypan Blue staining. The class given is cell-based. The settings on record: Homo sapiens, read-out: Viability50, concentration that results in a viability of 50%. The method, then: HL-60 (ATCC CCL-240) cells were cultured at 37° C. in RPMI 1640 medium (Bio Whittaker) containing 10% fetal calf serum (JRH) which had been treated at 56° C. for 30 minutes and suspended in RPMI 1640 medium at a concentration of 2.5×10^5 cells/4.5 ml.
[…] each of aqueous solutions of the compound (2) at a concentration of 10, 50 or 100 mM, the compound (7) at a concentration of 500, 1000 or 1500 μM, the compound (9) at a concentration of 750, 1500 or 3000 μM, the compound (11) at a concentration of 750, 1500 or 3000 μM, or the compound (14) at a concentration of 750, 1500 or 3000 μM was added to 4.5 ml of the suspension. The mixtures were incubated at 37° C. for 24 hours in the presence of 5% CO2.
A portion of the cells cultured for 24 or 48 hours as described in Example 4 was stained with 0.4% Trypan Blue and examined under an optical microscope. The number of viable cells which were not stained and the number of dead cells which were stained blue were counted. The concentration of each of the compounds (2), (7), (9), (11) and (14) that results in a viability of 50% (Viability50 mM) was determined.

Data set [4] has as its system Human promyelocytic leukemia HL-60 cells. Briefly: Antiproliferation activity against HL-60 cells (MTT method). The settings on record: 48 hour incubation. Format: cell-based. The protocol: Human promyelocytic leukemia HL-60 cells (ATCC CCL-240) were cultured at 37° C. in RPMI 1640 medium (Gibco) containing 10% of fetal calf serum (JRH Bioscience) which had been treated at 56° C. for 30 minutes, and suspended in the same medium at a concentration of 5000 cells/90 μl. Each 90 μl portion of the suspension was distributed into each well of a 96-well plate (Falcon). To the suspension in each well was added 10 μl of one the following samples, and incubated at 37° C. in the presence of 5% CO2. The samples were 2-, 4-, 8-, 16-, 32-, 64- or 128-dilutions of filter-sterilized 200 mM aqueous solution of the compound (2) obtained in Example 1, 50 mM aqueous solution of the compound (7), 50 mM aqueous solution of the compound (9), 100 mM aqueous solution of the compound (11), 100 mM aqueous solution of the compound (14), 20 mM aqueous solution of the compound (17), 12.5 mM aqueous solution of the compound (19) or 12.5 mM aqueous solution of the compound (21) with sterile water, as well as water. After 48 hour from the initiation of the incubation, the numbers of viable cells calculated based on the absorbance measured according to the MTT method as described in “Apoptosis Jikken Protocol” (Syuzyun-sha, Seiichi Tanuma, ed., pp. 156 (1994)) were compared each other.
In general terms: Formazan colour is commonly taken as a measure of viable cells.

The subject of data set [5] is HL-60 (ATCC CCL-240) cells. The experiment in a line: Measurement of apoptotic cells using FACScan. The settings on record: HL-60 cells, 24 hours. The class given is cell-based, Human. The protocol: as §1
The subject of data set [6] is HL-60 (ATCC CCL-240) cells. The experiment in a line: Apoptosis morphology in HL-60 cells under optical microscope. Format: cell-based, Human. The note with it: 24 hours. The method, then: HL-60 (ATCC CCL-240) cells were cultured at 37° C. in RPMI 1640 medium (Bio Whittaker) containing 10% fetal calf serum (JRH) which had been treated at 56° C. for 30 minutes and suspended in RPMI 1640 medium at a concentration of 2.5×10^5 cells/4.5 ml. […] each of aqueous solutions of the compound (2) at a concentration of 10, 50 or 100 mM, the compound (7) at a concentration of 500, 1000 or 1500 μM, the compound (9) at a concentration of 750, 1500 or 3000 μM, the compound (11) at a concentration of 750, 1500 or 3000 μM, or the compound (14) at a concentration of 750, 1500 or 3000 μM was added to 4.5 ml of the suspension. The mixtures were incubated at 37° C. for 24 hours in the presence of 5% CO2. The cultured cells were examined under an optical microscope.

In the case of `O=C[C@H](O)[C@H]1OC[C@@H](O)[C@@H]1O` [Compound (2), 3,6-anhydro-D-galactose, reference compound], in data set [1], the “conversion into DGE (spot with Rf value of 0.5, the same value as DGE)” value was “conversion into DGE was also observed”. Also, the “final concentration at which DNA fragmentation was observed” value in data set [2] (24 hours) was not below 5 mM; in data set [2] (48 hours), not below 1 mM. For the same compound, the IC50 in data set [3] (24 hours) stood at 18.1 mM; in data set [3] (48 hours), 3.4 mM; in data set [4] (Homo sapiens, HL-60 cells, read-out: IC50, concentration at which 50% of the proliferation is inhibited), 860 µM. Further, the “antiproliferation activity against HL-60 cells” value in data set [4] was “exhibited antiproliferation activities”. In addition, the “final concentration at which apoptotic cells were observed” value in data set [5] was not below 5 mM. Moreover, the “final concentration at which condensation of nuclei, shrinking of cells and formation of apoptotic bodies were observed” value in data set [6] was not below 5 mM.
